US20080207614A1, “QUINAZOLINE DERIVATIVES FOR THE TREATMENT AND PREVENTION OF DIABETES AND OBESITY” (SK CHEMICALS CO., LTD., priority 2004, published 2008)

Assays:
[1] = tested on: C2C12 muscle cells; experiment: Analysis of glucose absorption (2-deoxyglucose) in differentiated C2C12 muscle cells; assay type: cell-based; settings: test materials 10 μM, times relative to control group
Outline: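 Uptake of 0.2 μCi 2-deoxyglucose over 20 min, counted radiometrically in lysed cells. Before tracer, compounds (10 μM) were applied for 30 min to C2C12 cells differentiated 6 days in 1% serum and equilibrated 3 h in 5 mM glucose KRB.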

[2] = tested on: AMPK; experiment: Measurement of AMPK activity by Western blot in C2C12 cells; assay type: cell-based; parameters: key to AMPK activity (degree of phosphorylation of serine-79 and threonine-172): fold increase in threonine-172 phosphorylation; AMPK activity (degree of phosphorylation of serine-79): unit not given here; settings: 10 μM for 50 minutes; for AMPK activity (degree of phosphorylation of serine-79 and threonine-172): no superscript: Western blot of serine-79 and threonine-172 phosphorylation; for AMPK activity (class: degree of phosphorylation of threonine-172): strong/mild/weak; for AMPK activity (degree of phosphorylation of serine-79): footnote a: Western blot of serine-79 phosphorylation
Outline: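 Western blot readout of AMPK Thr-172 and ACC Ser-79 phosphorylation, normalised against ERK, served as the activity measure. Cells were C2C12 after differentiation, treated 50 minutes with 10 μM test material. Grading by Thr-172 increase: ≥3-fold strong, 1-3-fold mild, <1-fold weak.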

| Compound | Glucose absorption [1] | AMPK activity (degree of phosphorylation of serine-79 and threonine-172) [2] | AMPK activity (class: degree of phosphorylation of threonine-172) [2] | AMPK activity (degree of phosphorylation of serine-79) [2] |
| --- | --- | --- | --- | --- |
| COc1ccccc1CNc1nc(C(C)c2ccccc2)nc2ccccc12 (stereo not shown) [Compound 371, (2-Methoxybenzyl)-[2-(1-phenylethyl)-quinazolino-4-yl]-amine] | 1.2 | 2.8 |  |  |
| c1ccc(-c2nc(NCc3ccc4c(c3)OCO4)c3ccccc3n2)nc1 [Compound 230, Benzo[1,3]dioxol-5-ylmethyl-(2-pyridino-2-ylquinazolino-4-yl)-amine] | 1.7 | 4.9 | strong (“strong” means that the degree of phosphorylation of threonine-172 increased by 3 times or more) |  |
| CCOc1cc2ncnc(NCCCN3CCOCC3)c2cc1OCC [Compound 15, (6,7-Diethoxyquinazolino-4-yl)-(3-morpholino-4-ylpropyl)-amine] | 0.8 |  |  | 2.3^a |
| COc1cccc(CNc2nc(C(OC)c3ccccc3)nc3ccccc23)c1OC (stereo not shown) [Compound 364, (2,3-Dimethoxybenzyl)-[2-(methoxyphenylmethyl)-quinazolino-4-yl]-amine] | 1.3 | 1.2 |  |  |
| CCCc1nc(NCc2cccc(OC)c2)c2ccccc2n1 [Compound 394, (3-Methoxybenzyl)-(2-propylquinazolino-4-yl)-amine] | 1.3 | 4.5 |  |  |
| Cc1nc(NCc2cccc(C(F)(F)F)c2)c2ccccc2n1 [Compound 166, (2-Methylquinazolino-4-yl)-(3-trifluoromethylbenzyl)-amine] | 2.8 | 3.8 | strong (“strong” means that the degree of phosphorylation of threonine-172 increased by 3 times or more) |  |
| COc1cc(CNc2nc(C(C)c3ccccc3)nc3ccccc23)cc(OC)c1OC (stereo not shown) [Compound 378, [2-(1-Phenylethyl)-quinazolino-4-yl]-(3,4,5-trimethoxybenzyl)-amine] | 0.9 | 4.7 |  |  |
| CC(C)c1nc(NCc2cccc(F)c2)c2ccccc2n1 [Compound 183, (3-Fluorobenzyl)-(2-isopropylquinazolino-4-yl)-amine] | 3.3 | 2.6 | strong (“strong” means that the degree of phosphorylation of threonine-172 increased by 3 times or more) |  |
| COc1cccc(CNc2nc(C3CC3)nc3ccccc23)c1 [Compound 383, (2-Cyclopropylquinazolino-4-yl)-(3-methoxybenzyl)-amine] | 1.4 | 2.2 |  |  |
| COc1ccc(CNc2ncnc3ccccc23)c(OC)c1 [Compound 412, (2,4-Dimethoxybenzyl)-quinazolino-4-ylamine] | 1.7 | 8.4 |  |  |
| COc1ccc(CNc2nc(N3CCCCC3)nc3ccccc23)c(OC)c1 [Compound 292, (2,4-Dimethoxybenzyl)-(2-piperidino-1-ylquinazolino-4-yl)-amine] | 0.7 | 1.2 |  |  |
| COc1ccccc1CNc1nc(C(C)C)nc2ccccc12 [Compound 321, (2-Isopropylquinazolino-4-yl)-(2-methoxybenzyl)-amine] | 1.2 | 0.9 |  |  |
| CC(C)(C)c1nc(NCCc2ccccc2)c2ccccc2n1 [Compound 191, (2-tert-Butylquinazolino-4-yl)-phenethylamine] | 2.4 | 5.2 | strong (“strong” means that the degree of phosphorylation of threonine-172 increased by 3 times or more) |  |
| COc1ccccc1CNc1ncnc2ccccc12 [Compound 404, (2-Methoxybenzyl)-quinazolino-4-ylamine] | 2.1 | 1.9 |  |  |
| COc1cc(CNc2nc(N3CCN(C)CC3)nc3ccccc23)cc(OC)c1 [Compound 306, (3,5-Dimethoxybenzyl)-[2-(4-methylpiperazino-1-yl)-quinazolino-4-yl]-amine] | 0.8 | 1.7 |  |  |
| CCOc1cc2ncnc(NCc3ccc(Cl)cc3)c2cc1OCC [Compound 18, (4-Chlorobenzyl)-(6,7-diethoxyquinazolino-4-yl)-amine] | 1.0 |  |  | 6.0^a |
| Fc1ccccc1CCNc1nc(-c2ccccc2)nc2ccccc12 [Compound 140, [2-(2-Fluorophenyl)-ethyl]-(2-phenylquinazolino-4-yl)-amine] | 2.7 | 3.1 | strong (“strong” means that the degree of phosphorylation of threonine-172 increased by 3 times or more) |  |
| COc1cc(CNc2nc(-c3ccco3)nc3ccccc23)cc(OC)c1OC [Compound 345, (2-Furano-2-ylquinazolino-4-yl)-(3,4,5-trimethoxybenzyl)-amine] | 1.3 | 1.1 |  |  |
| Clc1ccccc1CNc1nc(-c2ccccc2)nc2ccccc12 [Compound 109, (2-Chlorobenzyl)-(2-phenylquinazolino-4-yl)-amine] | 1.3 | 1.9 | strong (“strong” means that the degree of phosphorylation of threonine-172 increased by 3 times or more) |  |
| Clc1ccc(CCNc2nc(-c3ccccc3)nc3ccccc23)cc1Cl [Compound 149, [2-(3,4-Dichlorophenyl)-ethyl]-(2-phenylquinazolino-4-yl)-amine] | 2.6 | 2.5 | strong (“strong” means that the degree of phosphorylation of threonine-172 increased by 3 times or more) |  |
| Cc1nc(NCc2ccc3c(c2)OCO3)c2ccccc2n1 [Compound 170, Benzo[1,3]dioxol-5-ylmethyl-(2-methylquinazolino-4-yl)-amine] | 2.4 | 8.8 | strong (“strong” means that the degree of phosphorylation of threonine-172 increased by 3 times or more) |  |
| COc1ccc(CNc2nc(N3CCCC3)nc3ccccc23)cc1OC [Compound 299, (3,4-Dimethoxybenzyl)-(2-pyrrolidino-1-ylquinazolino-4-yl)-amine] | 0.8 | 0.6 |  |  |
| c1ccc(-c2nc(NCc3cccc4ccccc34)c3ccccc3n2)nc1 [Compound 229, Naphthaleno-1-ylmethyl-(2-pyridino-2-ylquinazolino-4-yl)-amine] | 1.9 | 4.7 | strong (“strong” means that the degree of phosphorylation of threonine-172 increased by 3 times or more) |  |
